Test systems include MDA-MB-435; CCRF-CEM; A549; SF-268; NCI-H460; HT-29; BT-549; HOP-62; OVCAR-3; SW-620; K562; HL-60; COLO 205; UO-31; RXF 393; SNB-75; OVCAR-8; HOP-92; EKVX.
Experiment in all cases: inhibition of tumour cell growth, NCI panel, 48 h

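The compound was tested at five concentrations on cells cultured in 96-well plates, with a 48-hour exposure period. GI50: concentration for 50% inhibition of growth.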 The source made the active and inactive calls. No stated cut-off is given here; in the data, active = GI50 up to about 1.1 µM and inactive = higher.

Take `CCOC(=O)C(NC(=O)c1ccccc1)(Nc1ccc(S(=O)(=O)Nc2ncccn2)cc1)C(F)(F)F` (stereo unspecified): the GI50 with MDA-MB-435, in the experiment on CCRF-CEM, in the experiment with A549, in the experiment with SF-268, in the experiment with NCI-H460 and in the experiment with HT-29 was > 100 µM (inactive) in each case. The GI50 with BT-549, with HOP-62, with OVCAR-3, in the experiment with SW-620, with K562 and in the experiment with HL-60 was > 100 µM (inactive) each time. The GI50 in the experiment with COLO 205, in the experiment on UO-31, with RXF 393, in the experiment on SNB-75, with OVCAR-8 and in the experiment on HOP-92 was > 100 µM (inactive) throughout. In addition, in the experiment on EKVX, the GI50 is > 100 µM (inactive).
Regarding `Cc1nn(C(=O)c2ccncc2)c2c1C(c1ccccc1)SC(=N)N2` (stereo unspecified), the GI50 with MDA-MB-435, in the experiment with CCRF-CEM, in the experiment on A549, in the experiment with SF-268, in the experiment with NCI-H460 and in the experiment with HT-29 was > 10 µM (inactive) each time. For the same molecule, the GI50 in the experiment on BT-549, in the experiment on HOP-62, in the experiment on OVCAR-3, in the experiment with SW-620, in the experiment on K562 and in the experiment on HL-60 was > 10 µM (inactive) each time. Moreover, the GI50 with COLO 205, in the experiment with RXF 393, with SNB-75, with OVCAR-8, in the experiment on HOP-92 and in the experiment on EKVX was > 10 µM (inactive) in each case.
Turning to `COc1ccc2c(c1OC)C(=O)N/C2=C\c1c(CCN(C)C)cc2c(c1OC)OCO2`, the GI50 in the experiment on MDA-MB-435 is 31.5 µM (inactive); in the experiment with CCRF-CEM, > 100 µM (inactive); in the experiment on A549, > 100 µM (inactive); in the experiment with SF-268, > 100 µM (inactive); with NCI-H460 it was > 100 µM (inactive); in the experiment with HT-29 it was > 100 µM (inactive). For the same molecule, the GI50 was > 100 µM (inactive) with BT-549; > 100 µM (inactive) in the experiment on HOP-62; > 100 µM (inactive) with OVCAR-3; > 100 µM (inactive) in the experiment with SW-620; 68.7 µM (inactive) in the experiment on K562; > 100 µM (inactive) in the experiment on HL-60. Further, the GI50 in the experiment on COLO 205 is 46.2 µM (inactive); with RXF 393 it was 22.7 µM (inactive); in the experiment with SNB-75, < 0.01 µM (active); in the experiment with OVCAR-8 it was > 100 µM (inactive); with HOP-92, > 100 µM (inactive); in the experiment with EKVX, > 100 µM (inactive).
Consider `Cc1ccc(-c2n[nH]c(=O)n2/N=C\c2ccc([N+](=O)[O-])cc2)cc1`, for which the GI50 in the experiment on MDA-MB-435 is 35 µM (inactive); in the experiment with CCRF-CEM, > 32.1 µM (inactive); in the experiment on A549 it was > 100 µM (inactive); in the experiment with SF-268 it was > 100 µM (inactive); in the experiment on NCI-H460, > 100 µM (inactive); with HT-29, > 65.6 µM (inactive). For the same molecule, the GI50 is 54.1 µM (inactive) in the experiment with BT-549; 52.4 µM (inactive) in the experiment on HOP-62; > 100 µM (inactive) in the experiment on OVCAR-3; > 71.9 µM (inactive) in the experiment with SW-620; 32 µM (inactive) with K562; > 35.7 µM (inactive) in the experiment with HL-60. The GI50 is > 100 µM (inactive) in the experiment with COLO 205; > 93.3 µM (inactive) with UO-31; > 73.8 µM (inactive) in the experiment with RXF 393; 97.5 µM (inactive) in the experiment with SNB-75; > 100 µM (inactive) in the experiment with OVCAR-8; > 74.3 µM (inactive) in the experiment on HOP-92. Besides, in the experiment with EKVX, the GI50 was > 100 µM (inactive).
Consider `Cc1cccc(/C=C2/C(=O)Nc3ccccc32)n1`, for which the GI50 with MDA-MB-435 was 16.7 µM (inactive); in the experiment on CCRF-CEM it was 15.4 µM (inactive); in the experiment on SF-268, 14.7 µM (inactive); in the experiment on NCI-H460, 16.9 µM (inactive); in the experiment with HT-29, 24.1 µM (inactive); with BT-549, 21.4 µM (inactive). In addition, the GI50 is 16.6 µM (inactive) in the experiment with HOP-62; 14.2 µM (inactive) in the experiment on OVCAR-3; 19.3 µM (inactive) in the experiment with SW-620; 9.98 µM (inactive) with K562; 9.95 µM (inactive) in the experiment with HL-60; 19.9 µM (inactive) with COLO 205. Also, the GI50 in the experiment on UO-31 was 14.3 µM (inactive); in the experiment on RXF 393, 10.6 µM (inactive); with SNB-75 it was 28.8 µM (inactive); in the experiment with OVCAR-8, 23.3 µM (inactive); in the experiment on HOP-92, 7.82 µM (inactive); with EKVX, 16.8 µM (inactive).
Turning to `N#Cc1c(-c2ccc([N+](=O)[O-])cc2)c(C#N)c(=O)n(NS(=O)(=O)c2ccccc2)c1-c1ccccc1`, the GI50 in the experiment with MDA-MB-435, in the experiment with CCRF-CEM, with A549, in the experiment on SF-268, with NCI-H460 and in the experiment on HT-29 was > 100 µM (inactive) throughout. Besides, the GI50 in the experiment on BT-549, in the experiment with HOP-62, in the experiment with SW-620, in the experiment on K562, in the experiment with HL-60 and in the experiment with COLO 205 was > 100 µM (inactive) in each case. Moreover, the GI50 in the experiment on RXF 393, with SNB-75, in the experiment with OVCAR-8, in the experiment on HOP-92 and in the experiment on EKVX was > 100 µM (inactive) throughout.
As to `COC1=C(Cl)C(=O)c2c(O)ccc(O)c2C1=O`, the GI50 is 1.28 µM (inactive) in the experiment on MDA-MB-435; 0.18 µM (active) in the experiment on CCRF-CEM; 4.01 µM (inactive) in the experiment on A549; 2.43 µM (inactive) with SF-268; 4.44 µM (inactive) in the experiment with NCI-H460; 3.15 µM (inactive) in the experiment with HT-29. In addition, the GI50 was 1.82 µM (inactive) with BT-549; 0.873 µM (active) in the experiment on HOP-62; 0.476 µM (active) in the experiment with OVCAR-3; 0.1 µM (active) in the experiment with SW-620; 0.826 µM (active) in the experiment on K562; 0.0393 µM (active) with HL-60. In addition, the GI50 in the experiment on COLO 205 is 0.212 µM (active); in the experiment on UO-31, 1.77 µM (inactive); with RXF 393, 1.3 µM (inactive); in the experiment with SNB-75, 4.88 µM (inactive); in the experiment with OVCAR-8, 2 µM (inactive); with HOP-92, 1.78 µM (inactive). In the experiment on EKVX, the GI50 is 0.902 µM (active).
In the case of `S=C(S)N1CCN(c2cccc(Cl)c2)CC1`, the GI50 in the experiment on MDA-MB-435 was > 100 µM (inactive); in the experiment on CCRF-CEM, 34.9 µM (inactive); in the experiment with A549, > 100 µM (inactive); in the experiment on SF-268, 76.4 µM (inactive); in the experiment with HT-29, > 100 µM (inactive); with BT-549, 86.5 µM (inactive). For the same molecule, the GI50 was 82.8 µM (inactive) in the experiment on HOP-62; > 100 µM (inactive) in the experiment on OVCAR-3; 65.3 µM (inactive) with SW-620; 48.9 µM (inactive) in the experiment with K562; 34.9 µM (inactive) in the experiment with HL-60; 76.4 µM (inactive) with COLO 205. Further, the GI50 is 30.8 µM (inactive) in the experiment on UO-31; > 100 µM (inactive) in the experiment on RXF 393; 69.3 µM (inactive) with SNB-75; > 100 µM (inactive) in the experiment with OVCAR-8; 80.7 µM (inactive) in the experiment with HOP-92; > 100 µM (inactive) in the experiment on EKVX.

The record behind these values is ChEMBL document CHEMBL1201862, “PubChem BioAssay data set” (2004).
